Measured values from PubChem BioAssay AID2060625 (Molecular Pharmacology Branch, DTP, NCI, 2025).

System: 186277-243-T-J2-PDC spheroids with HUVEC/MSC, viability
Test: Anticancer human tumor 186277-243-T-J2-PDC patient-derived colon adenocarcinoma cell line growth inhibition [CLK]
Details: for IC50: curve of first compound; for viability, T/C: stronger effect = lower value
Excerpt: A high-throughput screen of multi-cell type tumor spheroids was designed to identify active combinations of […] and targeted small molecules. Complex spheroids include a stromal component modeled by human endothelial cells (HUVEC) and fibroblasts modeled by human mesenchymal stem cells (MSCs). The concentration ranges selected for each drug and investigational agent were based upon clinically achievable concentrations if the clinical Cmax of the agent was known.
Compounds. The drugs and investigational agents: cirtuvivint (SM08502; NSC835563), CC-671 (NSC850746), vemurafenib (NSC761431), tapotoclax (NSC804041), sotorasib (NSC818433), adagrasib (NSC831453), MRTX-1133 (NSC836407), BAY2416964 (NSC825713), copanlisib (NSC816437), inavolisib (NSC800729), abemaciclib (NSC768073), osimertinib (NSC779217), entinostat (NSC756642), eltanexor (KPT-8602, NSC794443), venetoclax (NSC766270), ceralasertib (NSC777638), bortezomib (NSC756655), olaparib (NSC753686), talazoparib (NSC767125), alisertib (NSC759677), peposertib (NSC802822), gemcitabine (NSC613327), 5-fluorouracil (NSC19893), SN-38 (NSC673596), oxaliplatin (NSC266046), paclitaxel (NSC125973), and doxorubicin (NSC123127), were obtained from the National Cancer Institute (NCI) Developmental Therapeutics Program Chemical Repository. The FDA-approved anticancer drug set is available from the Developmental Therapeutics Program at https://dtp.cancer.gov/organization/dscb/obtaining/available plates.htm. […] The stock solutions were prepared in dimethyl sulfoxide (DMSO, Sigma-Aldrich, St. Louis, MO, cat. D2650), except for the platinum complexes which were prepared in saline (Quality Biological, Gaithersburg, MD, cat. 114-055-101), at 800-fold the tested concentration and stored at -70 degrees C prior to their use. All drugs and investigational agents were tested over a range starting from a high concentration at or near the clinical Cmax and decreasing in half-log increments. If the clinical Cmax for an agent had not been determined, the highest concentration tested was 10 microM.
Cell Culture. All cells were maintained in an incubator at 37 degrees C and 5% CO2 with 95% humidity. The PDC lines were cultured according to standard operating procedures established by the NCI PDMR. Briefly, all PDCs were thawed and cultured in Matrigel-coated flasks prepared with a working solution of 1X Ham's F-12 nutrient mix, without supplementation (Invitrogen, Waltham, MA, cat. 11765054), 100 U/mL penicillin-streptomycin (Invitrogen, cat. 15140122), and 2.5% Matrigel (Corning Inc., Corning, NY, cat. 354248) for the first three passages. The 947758-054-R-J2-PDC line was cultured in 6B/Colon 1A media, which includes advanced DMEM/F-12 (Thermo Fisher Scientific, cat. 12634028), 10 mM HEPES (Thermo Fisher Scientific, cat. 15630080), 1X GlutaMAX supplement (Thermo Fisher Scientific, cat. 35050061), 0.1 mg/mL primocin (InvivoGen, cat. ant-pm-2), 10% defined fetal bovine serum, heat inactivated (HyClone Laboratories Inc., cat. SH30070.03HI), 1.25 mM N-Acetyl-L-cysteine (Sigma-Aldrich, cat. A9165), 10 mM nicotinamide (Sigma-Aldrich, cat. N0636), 1X B-27 supplement (Thermo Fisher Scientific, cat. 17504044), 1X N-2 supplement (Thermo Fisher Scientific, cat. 17502048), and 10 microM Y-27632 dihydrochloride (Tocris Bioscience, cat. 1254). The 876862-298-R-J1-PDC was cultured in 6E media, which includes all 6B/Colon 1A media components plus 50% L-WRN conditioned media (ATCC, cat. CRL-3276), 50 ng/mL recombinant human EGF recombinant protein (hEGF; Thermo Fisher Scientific, cat. PHG0311), 10 ng/mL recombinant human fibroblast growth factor 10 (hGFG-10; PeproTech, cat. 100-26), 1 ng/mL recombinant human fibroblast growth factor 2 (hFGF-2; PeproTech, cat. 100-18B), and 1 µM prostaglandin E2 (PGE2; Tocris, cat. 2296). The 227483-062-R1-J1-PDC line was cultured in Panc media, containing all 6E components except hFGF-2, with the addition of 500 nM SB-431542 (Selleckchem, cat. S1067) and 10 nM gastrin (Tocris, cat. 3006). […]
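Further: compound exposure lasted seven days before readout.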
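Wherever viability, T/C is given: 100% = DMSO vehicle control wells.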

## CCCS(=O)(=O)Nc1ccc(F)c(C(=O)c2c[nH]c3ncc(-c4ccc(Cl)cc4)cc23)c1F + CNC(=O)c1ccc(Nc2nc(OC3CCCC3)c3c(-c4ccc5nc(C)oc5c4)c[nH]c3n2)c(OC)c1
Second compound 0.0316 µM
  IC50: > 10 µM
Second compound 0.1 µM
  IC50: 6.98 µM
Second compound 0.316 µM
  IC50: 3.62 µM
Second compound 1 µM
  IC50: < 0.0316 µM
Second compound 3.16 µM
  IC50: < 0.0316 µM
Second compound 10 µM
  IC50: < 0.0316 µM
Second compound 0.0316 µM, first compound 0.0316 µM
  viability, T/C: 105%
Second compound 0.0316 µM, first compound 0.1 µM
  viability, T/C: 101%
Second compound 0.0316 µM, first compound 0.316 µM
  viability, T/C: 98.5%
Second compound 0.0316 µM, first compound 1 µM
  viability, T/C: 110%
Second compound 0.0316 µM, first compound 3.16 µM
  viability, T/C: 103%
Second compound 0.0316 µM, first compound 10 µM
  viability, T/C: 78.8%
Second compound 0.1 µM, first compound 0.0316 µM
  viability, T/C: 77%
Second compound 0.1 µM, first compound 0.1 µM
  viability, T/C: 77.5%
Second compound 0.1 µM, first compound 0.316 µM
  viability, T/C: 73.7%
Second compound 0.1 µM, first compound 1 µM
  viability, T/C: 92.5%
Second compound 0.1 µM, first compound 3.16 µM
  viability, T/C: 79.2%
Second compound 0.1 µM, first compound 10 µM
  viability, T/C: 36.7%
Second compound 0.316 µM, first compound 0.0316 µM
  viability, T/C: 50.8%
Second compound 0.316 µM, first compound 0.1 µM
  viability, T/C: 53%
Second compound 0.316 µM, first compound 0.316 µM
  viability, T/C: 58.7%
Second compound 0.316 µM, first compound 1 µM
  viability, T/C: 63.6%
Second compound 0.316 µM, first compound 3.16 µM
  viability, T/C: 51.7%
Second compound 0.316 µM, first compound 10 µM
  viability, T/C: 25.9%
Second compound 1 µM, first compound 0.0316 µM
  viability, T/C: 38.9%
Second compound 1 µM, first compound 0.1 µM
  viability, T/C: 38.2%
Second compound 1 µM, first compound 0.316 µM
  viability, T/C: 39.6%
Second compound 1 µM, first compound 1 µM
  viability, T/C: 44.6%
Second compound 1 µM, first compound 3.16 µM
  viability, T/C: 36.4%
Second compound 1 µM, first compound 10 µM
  viability, T/C: 27.3%
Second compound 3.16 µM, first compound 0.0316 µM
  viability, T/C: 33.2%
Second compound 3.16 µM, first compound 0.1 µM
  viability, T/C: 37.9%
Second compound 3.16 µM, first compound 0.316 µM
  viability, T/C: 37.9%
Second compound 3.16 µM, first compound 1 µM
  viability, T/C: 37.1%
Second compound 3.16 µM, first compound 3.16 µM
  viability, T/C: 33.3%
Second compound 3.16 µM, first compound 10 µM
  viability, T/C: 21.6%
Second compound 10 µM, first compound 0.0316 µM
  viability, T/C: 37.4%
Second compound 10 µM, first compound 0.1 µM
  viability, T/C: 39.2%
Second compound 10 µM, first compound 0.316 µM
  viability, T/C: 36.6%
Second compound 10 µM, first compound 1 µM
  viability, T/C: 34.8%
Second compound 10 µM, first compound 3.16 µM
  viability, T/C: 31.6%
Second compound 10 µM, first compound 10 µM
  viability, T/C: 24.5%
